Reference: US9200046B2, “Reporter system for high throughput screening of compounds and uses thereof” (priority 2011, dated 2015)
Like-named read-outs stand apart in the source and are kept apart here.

Molecular target: Nrf2-Keap1 complex (Homo sapiens, UniProt Q14145)
Test: cell-based
Assay type: cell-based
Settings: for activation at 16 µM / activation at 32 µM: 3 h; for activation at 16 µM: read-out: Activation 100 nL; for activation at 32 µM: read-out: Activation 200 nL
[1] = Table 2, 100 nL compound, screen run at 16 and 32 μM, 3 hr
[2] = Table 2, 200 nL compound, screen run at 16 and 32 μM, 3 hr
[3] = Table 1A, 100 nL compound, screen run at 16 and 32 μM, 3 hr
[4] = Table 1A, 200 nL compound, screen run at 16 and 32 μM, 3 hr

Sequence of Nrf2-Keap1 complex (Q14145 whole entry, one chain of several): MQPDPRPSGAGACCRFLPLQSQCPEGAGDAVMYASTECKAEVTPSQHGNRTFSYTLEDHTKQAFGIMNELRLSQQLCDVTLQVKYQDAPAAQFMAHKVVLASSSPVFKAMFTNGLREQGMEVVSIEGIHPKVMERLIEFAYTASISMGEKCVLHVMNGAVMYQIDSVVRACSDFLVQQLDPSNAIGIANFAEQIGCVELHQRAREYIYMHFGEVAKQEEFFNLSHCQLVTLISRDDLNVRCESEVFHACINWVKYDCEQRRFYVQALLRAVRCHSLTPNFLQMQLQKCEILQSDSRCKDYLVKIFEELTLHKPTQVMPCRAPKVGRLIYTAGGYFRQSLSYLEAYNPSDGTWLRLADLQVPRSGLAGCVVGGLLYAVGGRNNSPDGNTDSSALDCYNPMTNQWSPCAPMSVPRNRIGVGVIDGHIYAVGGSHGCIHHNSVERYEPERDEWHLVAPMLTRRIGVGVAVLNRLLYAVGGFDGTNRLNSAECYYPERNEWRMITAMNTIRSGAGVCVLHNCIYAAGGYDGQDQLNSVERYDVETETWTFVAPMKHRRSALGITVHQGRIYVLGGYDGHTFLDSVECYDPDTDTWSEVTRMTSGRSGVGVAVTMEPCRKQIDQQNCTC

Row | Compound | 100 nL (luminescence) [1] | 200 nL (luminescence) [2] | activation at 16 µM | activation at 32 µM | other results
1 | [H]/N=C(\N/C(=N/[H])NCCCCCCNC(=N)NC(=N)Nc1ccc(Cl)cc1)Nc1ccc(Cl)cc1 [CHLORHEXIDINE, reference compound] | 2188 | 1750 | – | – | Activation 100 nL: 147%; Activation 200 nL: 67%
2 | COc1ccnc(C[S+]([O-])c2nc3cc(OC(F)F)ccc3[nH]2)c1OC (stereo not shown) [PANTOPRAZOLE, reference compound] | – | – | 25% | 60% | 100 nL (luminescence) [3]: 904; 200 nL (luminescence) [4]: 1504
3 | CC(C)=CCCC1(C)C=Cc2c(O)c3c(c(CC=C(C)C)c2O1)OC12C(=CCCC1C(C)(C)O[C@@]2(C/C=C(\C)C(=O)O)C(=O)O)C3=O (stereo partly shown) [GARCINOLICACID] | 800 | 832 | 29% | 33% | –
4 | ClC1=C(Cl)C2(Cl)C3C(Cl)C(Cl)CC3C1(Cl)C2(Cl)Cl (stereo not shown) [CHLORDANE] | 1796 | 3540 | 107% | 135% | –
5 | COc1cc([C@@H]2c3cc4c(cc3[C@@H](O[C@@H]3O[C@@H]5CO[C@@H](C)O[C@H]5[C@H](O)[C@H]3O)[C@H]3COC(=O)[C@H]23)OCO4)cc(OC)c1O [ETOPOSIDE, reference compound] | 1180 | 1484 | 40% | 89% | –
6 | CCCCCCCCCCCCCC(=O)O[C@@H]1[C@@H](C)[C@@]2(O)[C@@H](C=C(CO)C[C@]3(O)C(=O)C(C)=C[C@@H]23)[C@@H]2C(C)(C)[C@]12OC(C)=O [PHORBOLMYRISTATEACETATE, reference compound] | 776 | 712 | 47% | 16% | –
7 | C=C(C)[C@H]1Cc2c(ccc3c2O[C@@H]2COc4cc(OC)c(OC)cc4[C@@H]2C3=O)O1 [ROTENONE] | 776 | 1136 | 31% | 30% | –
8 | O=c1c(O)c(-c2ccccc2)oc2ccccc12 [3-Hydroxyflavone] | – | – | – | – | hit strength in the screen (words): modest Nrf2 activator
9 | O=c1c(-c2ccc(O)cc2)coc2cc(O)cc(O)c12 [GENISTEIN] | 1980 | 1748 | 106% | 93% | –
10 | CC(C)c1ccc2c(c1)CC[C@H]1[C@](C)(C(N)=O)CCC[C@]21C [DEHYDROABIETAMIDE] | – | – | 66% | 135% | –
11 | O=C(/C=C/c1ccccc1)c1ccc(O)cc1 [4′-HYDROXYCHALCONE] | – | – | 217% | 76% | 100 nL (luminescence): 3674; 200 nL (luminescence): 1488
12 | Oc1cc(O)c2c(c1)O[C@H](c1cc(O)c(O)c(O)c1)[C@H](O)C2 [EPIGALLOCATECHIN] | 864 | 28 | 33% | -20% | –
13 | CC1(C)C2(Cl)C(Cl)C(Cl)C(Cl)(C(Cl)Cl)C1(Cl)C2Cl (stereo not shown) [STROBANE] | 5556 | 5836 | 388% | 235% | –
14 | O=C(/C=C/c1ccccc1)c1ccc(O)cc1O [2′,4′-DIHYDROXYCHALCONE] | 2352 | 1388 | 227% | 45% | –
15 | O=C1c2cccc(O)c2C(=O)c2c(O)cccc21 [DANTRON, reference compound] | 616 | 1020 | 29% | 29% | –
16 | CCc1cccc(CC)c1N(COC)C(=O)CCl [ALACHLOR] | 3852 | 4892 | 261% | 194% | –
17 | Nc1ncnc2c1ncn2[C@@H]1O[C@H](CO)[C@@H](O)[C@H]1O [ADENOSINE, reference compound] | – | – | 61% | 20% | 100 nL (luminescence): 1100; 200 nL (luminescence): 760; hit strength in the screen (words): modest hits
18 | CNC(=O)CSP(=S)(OC)OC [DIMETHOATE] | 1148 | 3772 | 59% | 145% | –
19 | COc1cccc(O)c1O [3-METHOXYCATECHOL] | 736 | 116 | 28% | -15% | –
20 | COc1c(O)cc2c(-c3ccccc3)cc(=O)oc2c1OC [KUHLMANNIN] | 596 | 1104 | 26% | 33% | –
21 | CC(=O)O[C@@H]1C[C@H]2C(C)(C)C(=O)CC[C@]2(C)[C@H]2CC[C@@]3(C)[C@H](c4ccoc4)OC(=O)[C@H]4O[C@]43[C@@]21C [DIHYDROGEDUNIN] | 1866 | 3068 | 112% | 114% | –

Row | Compound | 100 nL (luminescence) [1] | 200 nL (luminescence) [2] | activation at 16 µM | activation at 32 µM | other results
22 | O=C(O)/C=C/c1ccc(O)c(O)c1 [[…]] | 1040 | 1840 | 50% | 61% | –
23 | O=C(C=C(O)c1ccccc1)c1ccccc1O [2′,beta-DIHYDROXYCHALCONE] | 2064 | 44 | – | – | Activation 100 nL: 112%; Activation 200 nL: −18%
24 | […](CAPE) | 2508 | 16 | – | – | Activation 100 nL: 245%; Activation 200 nL: −14%
25 | CC(=O)NC(C(=O)O)C(C)(C)SN=O (stereo not shown) [reference compound] | 1044 | 1120 | – | – | Activation 100 nL: 45%; Activation 200 nL: 52%
26 | O=C(O)C(S)C(S)C(=O)O (stereo not shown) [2,3-DIMERCAPTOSUCCINICACID, reference compound] | – | – | 238% | 123% | 100 nL (luminescence): 4452; 200 nL (luminescence): 2760
27 | COc1cc([C@@H]2c3cc4c(cc3[C@@H](O)[C@H]3COC(=O)[C@H]23)OCO4)cc(OC)c1O [4′-DEMETHYLEPIPODOPHYLLOTOXIN] | – | – | – | – | 100 nL (luminescence) [3]: 3188; 200 nL (luminescence) [4]: 2844
28 | CCC(C)C(=O)c1c(O)c(C)c2oc3c(C)c(O)c(C(=O)C(C)CC)c(O)c3c2c1O (stereo not shown) [RHODOMYRTOXINB] | – | – | 56% | 36% | 100 nL (luminescence) [3]: 1120; 200 nL (luminescence) [4]: 1276
29 | Cc1c(O)c(O)cc2c1CC=C1[C@@]2(C)CC[C@@]2(C)[C@@H]3C[C@](C)(C(=O)O)CC[C@]3(C)CC[C@]12C [DIHYDROCELASTROL] | 1196 | 88 | 62% | -16% | hit strength in the screen (words): modest hit
30 | COc1ccc(-c2coc3cc(O)ccc3c2=O)c(O)c1O [KOPARIN] | 3768 | 492 | 223% | 11% | Neh2-luc reporter activation: > 200%
31 | COC(=O)Nc1nc2cc(C(=O)c3ccccc3)ccc2[nH]1 [MEBENDAZOLE, reference compound] | – | – | 74% | 216% | 100 nL (luminescence) [3]: 1872; 200 nL (luminescence) [4]: 3056
32 | O=CC=Cc1ccc(O)cc1 [p-HYDROXYCINNAMALDEHYDE] | 1208 | 3256 | 63% | 122% | –
33 | CC(=O)O[C@@H]1C[C@H]2C(C)(C)[C@@H](O)CC[C@]2(C)[C@H]2CC[C@@]3(C)[C@H](c4ccoc4)OC(=O)[C@H]4O[C@]43[C@@]21C [beta-DIHYDROGEDUNOL] | 2270 | 3252 | – | – | Activation 100 nL: 217%; Activation 200 nL: 124%; Neh2-luc reporter activation: 220%
34 | COC(=O)NC(=S)Nc1ccccc1NC(=S)NC(=O)OC | 712 | 836 | – | – | Activation 100 nL: 40%; Activation 200 nL: 21%
35 | CC(=O)O[C@@H]1CC2C(C)(C)[C@H](O)C=C[C@]2(C)C2CC[C@]3(C)C(=CC(=O)O[C@H]3c3ccoc3)[C@@]21C (stereo partly drawn) [3-alpha-HYDROXYDEOXYGEDININ] | 1196 | 1764 | – | – | Activation 100 nL: 55%; Activation 200 nL: 94%
36 | C[C@@](Cc1ccc(O)c(O)c1)(NN)C(=O)O [CARBIDOPA, reference compound] | 2262 | 1900 | 217% | 67% | –
37 | CC1=C(/C=C/C(C)=C/C=C/C(C)=C\C(=O)O)C(C)(C)CCC1 [ISOTRETINON, reference compound] | 1068 | 1456 | – | – | Activation 100 nL: 34%; Activation 200 nL: 86%
38 | CC(=O)O[C@H]1CC[C@]2(C)[C@H]3CC[C@@]4(C)[C@H](c5ccoc5)OC(=O)[C@H]5O[C@]54[C@]3(C)[C@H](OC(C)=O)C[C@H]2C1(C)C [3beta-ACETOXYDEOXODIHYDROGEDUNIN] | 924 | 972 | – | – | Activation 100 nL: 37%; Activation 200 nL: 42%
39 | CC(=O)OC[C@H]1O[C@@H]([S-])[C@H](OC(C)=O)[C@@H](OC(C)=O)[C@@H]1OC(C)=O.CCP(CC)CC.[Au+] [auranofin, reference compound] | – | – | – | – | Neh2-luc reporter activation: 200%
40 | COC(=O)/C=C/C(C)=C\C=C\C(C)=C\C=C\C=C(C)\C=C\C=C(C)\C=C\C(=O)O [BIXIN] | – | – | 113% | 113% | 100 nL (luminescence): 1880; 200 nL (luminescence): 3036
41 | O=C1C=CC(=O)c2c(O)cccc21 [JUGLONE] | – | – | 58% | 95% | –
42 | CC(=O)NCCc1c[nH]c2ccc(O)cc12 [ACETYLSEROTONIN] | – | – | 61% | 31% | 100 nL (luminescence) [3]: 900; 200 nL (luminescence) [4]: 1056
